According to patent publication US20110230431A1, “FOSFOMYCIN/TOBRAMYCIN COMBINATIONS FOR THE TREATMENT AND PREVENTION OF OPHTHALMIC, OTOLOGICAL AND DERMATOLOGICAL INFECTIONS” (Gilead Sciences, Inc., priority 2008, published 2011):
Where two headings read alike, the source gives them in different places.

Tests used:
[1] = test system: Cell Wall Synthesis in P. aeruginosa ATCC 27853; experiment: Macromolecular biosynthesis: 3H-N-acetyl-D-glucosamine incorporation; assay type: cell-based, Pseudomonas aeruginosa; settings: at 2 h relative to no-drug control, single experiment
Protocol: (§1) Picataway, N.J.) and N-acetyl-D-Glucosamine (^3H-NAG) (GE Healthcare Bio-Sciences), respectively (Baum, E Z, Antimicrob Agents Chernother 2001; 45 (11): 3182-3188). A single colony of P. aeruginosa ATCC 27853 was inoculated into 10 mL of CAMHB and incubated for 16 h, at 37° C., 200 rpm in a shaking water bath. […] At various time points, 100 μl aliquots (triplicate) of culture were removed and added to 100 μl of 20% TCA (VWR) in 96-well flat bottom trays (VWR). Plates were incubated on crushed ice for 60 min to precipitate the incorporated ^3H-precursors. Samples were harvested onto glass fibre filters (GFC) (PerkinElmer; Waltham, Mass.). Filters were washed two times with 35 mL of normal saline to remove unincorporated isotope followed by one wash with 35 mL of 90% ETOH (VWR). Filters were dried under a lamp for 1 h to reduce remaining moisture and then sealed in bags containing 5 mL of scintillation cocktail (Betaplate Scint; PerkinElmer). Counts per minute (CPM) were determined using a Wallac MicroBeta Trilux (PerkinElmer). Mean CPM±standard deviation (SD) were determined for each treatment group. Background counts consisting of a media-only sample were subtracted from the no-drug and antibiotic treatment groups. The percent inhibition of incorporation was determined relative to the no-drug controls. The activities of the three drugs were compared by calculating the time to 50% inhibition (T1/2), and statistical differences at each time point were evaluated by the Analysis of Variance (ANOVA; GraphPad Prisma software package 3.03; GraphPad Software, Inc., San Diego, Calif.). Each curve represents 4 replicate experiments, each time point performed in triplicate.

E. coli [2] = assay type: cell-based, Escherichia coli
Protocol: Development of resistance after a single exposure to antibiotic was determined for both clinical and reference isolates of P. aeruginosa, S. aureus, and E. coli. Late Log-phase cultures were centrifuged at 1,400×g at room temperature for 20 min and the cell pellets resuspended in CAMHB. […] The culture plates were incubated at 37° C. for 48 h and the number of colonies on each plate was enumerated manually. The spontaneous mutation frequency (SMF) resulting in antibiotic resistance was calculated by dividing the number of bacteria growing at the defined antibiotic concentration by the number of bacteria in the inoculum (Martinex, J L, Antimicrob Agents Chemother 2000; 44 (1):1771-1777).

S. aureus = experiment: MIC by agar plate dilution method (CLSI); assay type: cell-based, Staphylococcus aureus
From the text: (§2) P. aeruginosa strains isolated from patients with cystic fibrosis (CF) were obtained from Children's Hospital and Regional Medical Center (Seattle, Wash.). Clinical isolates of Escherichia coli and Staphylococcus aureus were obtained from The Jones Group Laboratories (JMI; North Liberty, Iowa) and The Clinical Microbiology Institute (CMI; Wilsonville, Oreg.). P. aeruginosa 27853, S. aureus 29213, and E. coli 25922 served as quality control strains^1 and were obtained from The America Type Culture Collection (ATCC; Manassas, Va.). P. aeruginosa ATCC 27853, a fosfomycin and tobramycin susceptible strain, was used in macromolecular biosynthesis and tobramycin uptake experiments. Stock cultures were maintained at −80° C. in Cation-Adjusted Mueller-Hinton Broth (CAMHB) (Remel; Lenexa, Kans.) supplemented with 20% glycerol (VWR: West Chester, Pa.). Cultures for routine use were grown on tryptic soy agar plates+5% sheeps blood (PML Microbiologicals Inc.; Wilsonville, Oreg.) and stored at 4° C.
(§3) MICs were determined by the agar plate dilution method according to CLSI guidelines (National Committee for Clinical Laboratory Standards. M7-A6. 6th ed. Villanova (Pa.): NCCLS, 2003; M100-S14. Villanova (Pa.): NCCLS, 2004).

E. coli [3] = experiment: MIC by agar plate dilution method (CLSI); assay type: cell-based, Escherichia coli
From the text: as §2, §3

P. aeruginosa = experiment: MIC by agar plate dilution method (CLSI); assay type: cell-based, Pseudomonas aeruginosa
From the text: as §2, §3

P. aeruginosa ATCC 27853 = experiment: Time-kill experiments in CAMHB with 2% mucin; assay type: cell-based, Pseudomonas aeruginosa; settings: for killing activity at 24 h: FT4:1 16 μg/mL, fosfomycin 12.8 μg/mL; for killing activity at 24 h / killing activity: tobramycin 3.2 μg/mL, mucin; for killing activity: FT4:1 at 4×MIC (16 μg/mL), component weights fosfomycin 12.8 μg/mL; for killing activity (bactericidal ≧3-Log10, bacteriostatic ≦2-Log10): multiples of the MIC, FIG. 1-3
Protocol: Time-kill experiments were performed according to a modified CLSI method (National Committee for Clinical Laboratory Standards. M-26A. Villanova (Pa.): NCCLS, 1999). […] Bacterial cultures and antibiotic(s) were incubated at 37° C. in a shaking water bath (200 rpm) and killing activity assessed at 0, 1, 2, 4, 6 and 24 h. Antibiotics that reduced the original inoculum by ≧3-Log10 were considered bactericidal. Antibiotics that reduced the original inoculum by ≦2-Log10 were considered bacteriostatic.

[4] = test system: Protein Synthesis in P. aeruginosa ATCC 27853; experiment: Macromolecular biosynthesis: 3H-amino acid incorporation; assay type: cell-based, Pseudomonas aeruginosa
Protocol: as §1

Compound: C[C@@H]1O[C@@H]1P(=O)(O)O [Fosfomycin, fosfomycin disodium]
- inhibition at 3.2 µg/mL ([1]; Pseudomonas aeruginosa, ATCC27853, 3.2 μg/mL): 8%
- inhibition at 6.4 µg/mL ([1]; Pseudomonas aeruginosa, ATCC27853, 6.4 μg/mL): 14%
- inhibition at 12.8 µg/mL ([1]; Pseudomonas aeruginosa, ATCC27853, 12.8 μg/mL): 3%
- Frequency of Resistance 4× MIC (E. coli [2]; E. coli ATCC 25922, 4× MIC): 1.9 × 10^−5
- Frequency of Resistance 8× MIC (E. coli [2]; E. coli ATCC 25922, 8× MIC): 6.0 × 10^−6
- Frequency of Resistance 16× MIC (E. coli [2]; E. coli ATCC 25922, 16× MIC): 2.5 × 10^−5
- Frequency of Resistance 4× MIC (E. coli [2]; E. coli C032, 4× MIC): 4.4 × 10^−5
- Frequency of Resistance 8× MIC (E. coli [2]; E. coli C032, 8× MIC): 7.8 × 10^−5
- Frequency of Resistance 16× MIC (E. coli [2]; E. coli C032, 16× MIC): 2.1 × 10^−6
- Frequency of Resistance 4× MIC (E. coli [2]; E. coli C036, 4× MIC): 1.1 × 10^−6
- Frequency of Resistance 8× MIC (E. coli [2]; E. coli C036, 8× MIC): 2.3 × 10^−6
- Frequency of Resistance 16× MIC (E. coli [2]; E. coli C036, 16× MIC): 3.4 × 10^−6
- Frequency of Resistance 4× MIC (E. coli [2]; E. coli C037, 4× MIC): 1.9 × 10^−6
- Frequency of Resistance 8× MIC (E. coli [2]; E. coli C037, 8× MIC): 2.9 × 10^−6
- Frequency of Resistance 16× MIC (E. coli [2]; E. coli C037, 16× MIC): 8.6 × 10^−6
- Frequency of Resistance 4× MIC (E. coli [2]; E. coli C294, 4× MIC): 7.9 × 10^−5
- Frequency of Resistance 8× MIC (E. coli [2]; E. coli C294, 8× MIC): 5.4 × 10^−5
- Frequency of Resistance 16× MIC (E. coli [2]; E. coli C294, 16× MIC): 6.3 × 10^−5
- MIC (S. aureus; Staphylococcus aureus, ATCC29213, S. aureus ATCC 29213, read-out: MIC): 2 µg/mL
- MIC (S. aureus; Staphylococcus aureus, S. aureus C051, read-out: MIC): 1 µg/mL
- MIC (S. aureus; Staphylococcus aureus, S. aureus C053, read-out: MIC): 1 µg/mL
- MIC (S. aureus; Staphylococcus aureus, S. aureus C055, read-out: MIC): 8 µg/mL
- MIC (S. aureus; Staphylococcus aureus, S. aureus C057, read-out: MIC): 2 µg/mL
- MIC (E. coli [3]; Escherichia coli, ATCC25922, E. coli ATCC 25922, read-out: MIC): 2 µg/mL
- MIC (E. coli [3]; Escherichia coli, E. coli C032, read-out: MIC): 1 µg/mL
- MIC (E. coli [3]; Escherichia coli, E. coli C036, read-out: MIC): 2 µg/mL
- MIC (E. coli [3]; Escherichia coli, E. coli C037, read-out: MIC): 1 µg/mL
- MIC (E. coli [3]; Escherichia coli, E. coli C294, read-out: MIC): 0.5 µg/mL
- MIC (P. aeruginosa; Pseudomonas aeruginosa, ATCC27853, P. aeruginosa ATCC 27853, read-out: MIC): 4 µg/mL
- MIC (P. aeruginosa; Pseudomonas aeruginosa, P. aeruginosa C002, read-out: MIC): 4 µg/mL
- MIC (P. aeruginosa; Pseudomonas aeruginosa, P. aeruginosa C003, read-out: MIC): 16 µg/mL
- MIC (P. aeruginosa; Pseudomonas aeruginosa, P. aeruginosa C013, read-out: MIC): 32 µg/mL
- MIC (P. aeruginosa; Pseudomonas aeruginosa, P. aeruginosa C014, read-out: MIC): 8 µg/mL
- killing activity at 24 h (P. aeruginosa ATCC 27853; FIG. 4): re-growth of the bacterial culture
- killing activity (P. aeruginosa ATCC 27853; FIG. 4): bacteriostatic killing
- killing activity (bactericidal ≧3-Log10, bacteriostatic ≦2-Log10) (P. aeruginosa ATCC 27853): bacteriostatic
- time to 50% inhibition (T1/2) of protein synthesis ([4]; 6.4 μg/mL (FIG. 5)): 2.42 h
- inhibition at 3.2 µg/mL ([4]; Pseudomonas aeruginosa, ATCC27853, 3.2 μg/mL, at 2 h relative to no-drug control, single experiment): 0%
- inhibition at 6.4 µg/mL ([4]; Pseudomonas aeruginosa, ATCC27853, 6.4 μg/mL, at 2 h relative to no-drug control, single experiment): 21%
- inhibition at 12.8 µg/mL ([4]; Pseudomonas aeruginosa, ATCC27853, 12.8 μg/mL, at 2 h relative to no-drug control, single experiment): 9%

Compound: tobramycin sulfate
- % Inhibition Cell Wall ([1]; 0.8 μg/mL): 4%
- % Inhibition Cell Wall ([1]; 1.6 μg/mL): 10%
- % Inhibition Cell Wall ([1]; 3.2 μg/mL): 36%
- Frequency of Resistance 4× MIC (E. coli [2]; E. coli ATCC 25922, 4× MIC): 2.5 × 10^−6
- Frequency of Resistance 8× MIC (E. coli [2]; E. coli ATCC 25922, 8× MIC): 1.5 × 10^−7
- Frequency of Resistance 16× MIC (E. coli [2]; E. coli ATCC 25922, 16× MIC): 8.7 × 10^−8
- Frequency of Resistance 4× MIC (E. coli [2]; E. coli C032, 4× MIC): 1.3 × 10^−6
- Frequency of Resistance 8× MIC (E. coli [2]; E. coli C032, 8× MIC): 5.5 × 10^−6
- Frequency of Resistance 16× MIC (E. coli [2]; E. coli C032, 16× MIC): 6.2 × 10^−7
- Frequency of Resistance 4× MIC (E. coli [2]; E. coli C036, 4× MIC): 4.4 × 10^−6
- Frequency of Resistance 8× MIC (E. coli [2]; E. coli C036, 8× MIC): 4.7 × 10^−7
- Frequency of Resistance 16× MIC (E. coli [2]; E. coli C036, 16× MIC): 1.9 × 10^−9
- Frequency of Resistance 4× MIC (E. coli [2]; E. coli C037, 4× MIC): 1.0 × 10^−6
- Frequency of Resistance 8× MIC (E. coli [2]; E. coli C037, 8× MIC): 4.4 × 10^−6
- Frequency of Resistance 16× MIC (E. coli [2]; E. coli C037, 16× MIC): 1.1 × 10^−7
- Frequency of Resistance 4× MIC (E. coli [2]; E. coli C294, 4× MIC): 6.6 × 10^−5
- Frequency of Resistance 8× MIC (E. coli [2]; E. coli C294, 8× MIC): 1.3 × 10^−6
- Frequency of Resistance 16× MIC (E. coli [2]; E. coli C294, 16× MIC): <7.2 × 10^−9
- MIC (S. aureus; S. aureus ATCC 29213): 0.25 µg/mL
- MIC (S. aureus; S. aureus C051): 0.25 µg/mL
- MIC (S. aureus; S. aureus C053): 0.25 µg/mL
- MIC (S. aureus; S. aureus C055): 0.25 µg/mL
- MIC (S. aureus; S. aureus C057): 0.5 µg/mL
- MIC (E. coli [3]; E. coli ATCC 25922): 0.5 µg/mL
- MIC (E. coli [3]; E. coli C032): 0.5 µg/mL
- MIC (E. coli [3]; E. coli C036): 0.5 µg/mL
- MIC (E. coli [3]; E. coli C037): 4 µg/mL
- MIC (E. coli [3]; E. coli C294): 0.5 µg/mL
- MIC (P. aeruginosa; P. aeruginosa ATCC 27853): 0.5 µg/mL
- MIC (P. aeruginosa; P. aeruginosa C002): 0.5 µg/mL
- MIC (P. aeruginosa; P. aeruginosa C003): 0.5 µg/mL
- MIC (P. aeruginosa; P. aeruginosa C013): 0.5 µg/mL
- MIC (P. aeruginosa; P. aeruginosa C014): 0.5 µg/mL
- killing activity at 24 h (P. aeruginosa ATCC 27853; FIG. 4): re-growth of the bacterial culture
- killing activity (P. aeruginosa ATCC 27853; FIG. 4): bacteriostatic killing
- bacterial killing on increasing the concentration (P. aeruginosa ATCC 27853; increase from 2 μg/mL to 4 μg/mL (2-fold), FIG. 2): > 4 Log10
- killing activity (bactericidal ≧3-Log10, bacteriostatic ≦2-Log10) (P. aeruginosa ATCC 27853): rapidly bactericidal
- enhancement of bacterial killing in the presence of fosfomycin (P. aeruginosa ATCC 27853; tobramycin 3.2 μg/mL in the presence of 12.8 μg/mL fosfomycin, FIG. 4): 3 Log10 CFU/mL
- % Inhibition Protein ([4]; 0.8 μg/mL, at 2 h relative to no-drug control, single experiment): 2%
- time to 50% inhibition (T1/2) of protein synthesis ([4]; 1.6 μg/mL (FIG. 5)): > 3 h
- % Inhibition Protein ([4]; 1.6 μg/mL, at 2 h relative to no-drug control, single experiment): 6%
- % Inhibition Protein ([4]; 3.2 μg/mL, at 2 h relative to no-drug control, single experiment): 42%
